{"source": "patent US11903387B2", "about": "(priority 2016, dated 2024)", "key": {"[1]": {"test_system": "Pseudoperonospora cubensis", "experiment": "Test 2: control effect against cucumber downy mildew", "assay_type": "in vivo"}, "Phytophthora infestans": {"test_system": "Phytophthora infestans", "experiment": "whole plant or invertebrate", "assay_type": "in vivo", "conditions": "for pest or weed control at 10 ppm: read-out: Test 1 preventive value, Measured, applied alone, 10 ppm; for pest or weed control at 50 ppm: read-out: Test 1 preventive value, Measured, applied alone, 50 ppm"}, "[2]": {"conditions": "Pseudoperonospora cubensis, applied alone, 2 ppm, read-out: Test 2 preventive value, Measured"}, "[3]": {"conditions": "Pseudoperonospora cubensis, applied alone, 10 ppm, read-out: Test 2 preventive value, Measured"}, "[4]": {"conditions": "Phytophthora infestans, in Solanum lycopersicum, read-out: Test 1 preventive value, Measured, applied alone, 2 ppm"}, "[5]": {"conditions": "Phytophthora infestans, in Solanum lycopersicum"}, "[6]": {"conditions": "component (b) alone 0.08 ppm, average of three repeats"}, "[7]": {"conditions": "component (b) alone 0.4 ppm, average of three repeats"}, "[8]": {"conditions": "component (b) alone 2 ppm, average of three repeats"}}, "note": "Read-outs that look alike come from different tables or passages of the source.", "data": [{"compound": "CC(C)(C)C(O)(CCc1ccc(Cl)cc1)Cn1cncn1", "note": "(centres unmarked) [Tebuconazole]", "values": [{"measurement": "pest or weed control at 20 ppm", "setting": "[1]; Pseudoperonospora cubensis, component (b) alone 20 ppm, read-out: Test 2 Measured", "result": 0, "unit": "%"}, {"measurement": "pest or weed control at 100 ppm", "setting": "[1]; Pseudoperonospora cubensis, component (b) alone 100 ppm, read-out: Test 2 Measured", "result": 10, "unit": "%"}, {"measurement": "pest or weed control at 500 ppm", "setting": "[1]; Pseudoperonospora cubensis, component (b) alone 500 ppm, read-out: Test 2 Measured", "result": 97, "unit": "%"}, {"measurement": "pest or weed control at 20 ppm", "setting": "Phytophthora infestans; Phytophthora infestans, in Solanum lycopersicum, read-out: Test 1 Measured, component (b) alone 20 ppm", "result": 0, "unit": "%"}, {"measurement": "pest or weed control at 100 ppm", "setting": "Phytophthora infestans; Phytophthora infestans, in Solanum lycopersicum, read-out: Test 1 Measured, component (b) alone 100 ppm", "result": 0, "unit": "%"}, {"measurement": "pest or weed control at 500 ppm", "setting": "Phytophthora infestans; Phytophthora infestans, in Solanum lycopersicum, read-out: Test 1 Measured, component (b) alone 500 ppm", "result": 16.7, "unit": "%"}]}, {"compound": "C[C@@]1(c2ccc(Oc3ccccc3)cc2)OC(=O)N(Nc2ccccc2)C1=O", "note": "(racemic) [Famoxadone]", "values": [{"measurement": "pest or weed control at 2 ppm", "setting": "[1]; [2]", "result": 0, "unit": "%"}, {"measurement": "pest or weed control at 10 ppm", "setting": "[1]; [3]", "result": 0, "unit": "%"}, {"measurement": "pest or weed control at 50 ppm", "setting": "[1]; Pseudoperonospora cubensis, applied alone, 50 ppm, read-out: Test 2 preventive value, Measured", "result": 0, "unit": "%"}, {"measurement": "pest or weed control at 2 ppm", "setting": "Phytophthora infestans; [4]", "result": 0, "unit": "%"}, {"measurement": "pest or weed control at 10 ppm", "setting": "Phytophthora infestans; [5]", "result": 0, "unit": "%"}, {"measurement": "pest or weed control at 50 ppm", "setting": "Phytophthora infestans; [5]", "result": 10, "unit": "%"}]}, {"compound": "COc1ccc(C(=CC(=O)N2CCOCC2)c2ccc(Cl)cc2)cc1OC", "note": "[Dimethomorph]", "values": [{"measurement": "Test 2 Measured preventive value", "setting": "[1]; component (b) alone, 0.4 ppm", "result": 0}, {"measurement": "Test 2 Measured preventive value", "setting": "[1]; component (b) alone, 2 ppm", "result": 62.5}, {"measurement": "Test 2 Measured preventive value", "setting": "[1]; component (b) alone, 10 ppm", "result": 95.5}, {"measurement": "pest or weed control at 0.4 ppm", "setting": "Phytophthora infestans; Phytophthora infestans, in Solanum lycopersicum, read-out: Test 1 Measured preventive value, component (b) alone, 0.4 ppm", "result": 11.7, "unit": "%"}, {"measurement": "pest or weed control at 2 ppm", "setting": "Phytophthora infestans; Phytophthora infestans, in Solanum lycopersicum, read-out: Test 1 Measured preventive value, component (b) alone, 2 ppm", "result": 26.7, "unit": "%"}]}, {"compound": "Cc1ccc(C(C)NC(=O)[C@@H](NC(=O)OC(C)C)C(C)C)cc1", "note": "(some centres unmarked) [Iprovalicarb]", "values": [{"measurement": "Test 2 Measured", "setting": "[1]; component (b) alone, 0.4 ppm", "result": 0}, {"measurement": "Test 2 Measured", "setting": "[1]; component (b) alone, 2 ppm", "result": 0}, {"measurement": "Test 2 Measured", "setting": "[1]; component (b) alone, 10 ppm", "result": 93.8}, {"measurement": "Test 1 Measured", "setting": "Phytophthora infestans; component (b) alone, 0.4 ppm", "result": 15}, {"measurement": "Test 1 Measured", "setting": "Phytophthora infestans; component (b) alone, 2 ppm", "result": 93.3}, {"measurement": "Test 1 Measured", "setting": "Phytophthora infestans; component (b) alone, 10 ppm", "result": 100}]}, {"compound": "C#CCOc1ccc(CCNC(=O)C(OCC#C)c2ccc(Cl)cc2)cc1OC", "note": "(centres unmarked) [Mandipropamid]", "values": [{"measurement": "Test 2 Measured preventive value", "setting": "[1]; [6]", "result": 5}, {"measurement": "Test 2 Measured preventive value", "setting": "[1]; [7]", "result": 89.5}, {"measurement": "Test 2 Measured preventive value", "setting": "[1]; [8]", "result": 95}, {"measurement": "Test 2 Measured", "setting": "[1]; component (b) alone, 0.08 ppm", "result": 12}, {"measurement": "Test 2 Measured preventive value", "setting": "[1]; component (b) alone, 0.08 ppm", "result": 5}, {"measurement": "Test 2 Measured", "setting": "[1]; component (b) alone, 0.4 ppm", "result": 88.3}, {"measurement": "Test 2 Measured preventive value", "setting": "[1]; component (b) alone, 0.4 ppm", "result": 89.5}, {"measurement": "Test 2 Measured", "setting": "[1]; component (b) alone, 2 ppm", "result": 95}, {"measurement": "Test 2 Measured preventive value", "setting": "[1]; component (b) alone, 2 ppm", "result": 95}, {"measurement": "Test 1 Measured preventive value", "setting": "Phytophthora infestans; [6]", "result": 36.7}, {"measurement": "Test 1 Measured preventive value", "setting": "Phytophthora infestans; [7]", "result": 95.5}, {"measurement": "Test 1 Measured preventive value", "setting": "Phytophthora infestans; [8]", "result": 100.0}, {"measurement": "Test 1 Measured", "setting": "Phytophthora infestans; component (b) alone, 0.08 ppm", "result": 40.0}, {"measurement": "Test 1 Measured preventive value", "setting": "Phytophthora infestans; component (b) alone, 0.08 ppm", "result": 36.7}, {"measurement": "Test 1 Measured", "setting": "Phytophthora infestans; component (b) alone, 0.4 ppm", "result": 94.0}, {"measurement": "Test 1 Measured preventive value", "setting": "Phytophthora infestans; component (b) alone, 0.4 ppm", "result": 95.5}, {"measurement": "Test 1 Measured", "setting": "Phytophthora infestans; component (b) alone, 2 ppm", "result": 100.0}, {"measurement": "Test 1 Measured preventive value", "setting": "Phytophthora infestans; component (b) alone, 2 ppm", "result": 100.0}]}, {"compound": "O=[N+]([O-])c1cc(C(F)(F)F)c(Cl)c([N+](=O)[O-])c1Nc1ncc(C(F)(F)F)cc1Cl", "note": "[Fluazinam]", "values": [{"measurement": "pest or weed control at 0.4 ppm", "setting": "[1]; Pseudoperonospora cubensis, applied alone, 0.4 ppm, read-out: Test 2 preventive value, Measured", "result": 0, "unit": "%"}, {"measurement": "pest or weed control at 2 ppm", "setting": "[1]; [2]", "result": 90.8, "unit": "%"}, {"measurement": "pest or weed control at 10 ppm", "setting": "[1]; [3]", "result": 100, "unit": "%"}, {"measurement": "pest or weed control at 2 ppm", "setting": "Phytophthora infestans; [4]", "result": 0, "unit": "%"}, {"measurement": "pest or weed control at 10 ppm", "setting": "Phytophthora infestans; [5]", "result": 16.7, "unit": "%"}, {"measurement": "pest or weed control at 50 ppm", "setting": "Phytophthora infestans; [5]", "result": 60.8, "unit": "%"}]}, {"compound": "CS(=O)(=O)Oc1ccc(F)c2c1COC(c1csc(C3CCN(C(=O)Cn4nc(C(F)F)cc4C(F)F)CC3)n1)OC2", "note": "(centres unmarked) [Compound 1-62, 4-[4-(6-fluoro-9-methylsulfonyloxy-1,5-dihydro-3H-2,4-benzodioxepin-3-yl)-2-thiazolyl]-1-[2-[3,5-bis(difluoromethyl)-1H-pyrazol-1-yl]acetyl]piperidine]", "values": [{"measurement": "pest or weed control at 0.0024 ppm", "setting": "[1]; Pseudoperonospora cubensis, Compound 1-62 alone, 0.0024 ppm, read-out: Test 2 Measured", "result": 86, "unit": "%"}, {"measurement": "pest or weed control at 0.012 ppm", "setting": "[1]; Pseudoperonospora cubensis, Compound 1-62 alone, 0.012 ppm, read-out: Test 2 Measured", "result": 100, "unit": "%"}, {"measurement": "pest or weed control at 0.06 ppm", "setting": "[1]; Pseudoperonospora cubensis, Compound 1-62 alone, 0.06 ppm, read-out: Test 2 Measured", "result": 100, "unit": "%"}, {"measurement": "pest or weed control at 0.0024 ppm", "setting": "Phytophthora infestans; Phytophthora infestans, in Solanum lycopersicum, read-out: Test 1 Measured, Compound 1-62 alone, 0.0024 ppm", "result": 59, "unit": "%"}, {"measurement": "pest or weed control at 0.012 ppm", "setting": "Phytophthora infestans; Phytophthora infestans, in Solanum lycopersicum, read-out: Test 1 Measured, Compound 1-62 alone, 0.012 ppm", "result": 98, "unit": "%"}, {"measurement": "pest or weed control at 0.06 ppm", "setting": "Phytophthora infestans; Phytophthora infestans, in Solanum lycopersicum, read-out: Test 1 Measured, Compound 1-62 alone, 0.06 ppm", "result": 100, "unit": "%"}]}]}
